Results published in patent publication US11440903B2, “Salt form and crystal form of compound as FGFR4 inhibitor and preparation method thereof” (GUANGDONG ZHONGSHENG PHARMACEUTICAL CO., LTD, priority 2017, dated 2022).
Each block holds one compound with its values, some of them ahead of it.

Assay: Solid stability test of the crystal forms (influence factors and acceleration tests; appearance, XRPD, HPLC content and impurities)
Format: physicochemical
Conditions: for photostability (stability under light radiation), conclusion in words / stability in dark, conclusion in words / stability under acceleration conditions, conclusion in words / thermal stability (high temperature), conclusion in words: conclusion of influence factors and acceleration tests
Excerpt: A sample of the crystal form A was placed on the bottom of a glass sample bottle, and spread to a thin layer. The sample stored under high temperature, high humidity, and acceleration conditions was placed in a bottle of which the mouth was packed with a pierced aluminum foil to ensure the sample to be sufficiently exposed to ambient air; the sample stored under light radiation conditions was placed at room temperature in a standing bottle of which the mouth was open, the sample was exposed to a light resource, and sampled for detection after being radiated by sufficient energy. Samples were taken and analyzed at various time points, and the test results were compared with the initial test results of 0 day, the inspection items included appearance, content and impurities, and the test results are shown in Table 9.
A sample of the crystal form B (10 mg) was placed on the bottom of a glass sample bottle, and spread to a thin layer. The sample stored under high temperature, high humidity, and acceleration conditions were placed in a bottle of which the mouth was packed with a pierced aluminum foil to ensure the sample to be sufficiently exposed to ambient air; the sample stored under light radiation conditions was placed at room temperature in a standing bottle of which the mouth was open, the sample was exposed to a light resource, and sampled for detection after being radiated by sufficient energy, the control sample stored in dark (open, the whole sample bottle was sealed with aluminum foil to keep the content in dark) and the sample stored under light radiation conditions were placed together to exclude environmental influence on the samples. Samples were taken and analyzed at various time points, and the test results were compared with the initial test results of 0 day, the inspection items included appearance, crystal form, content and impurities, the test results are shown in Table 10.
(§1) A sample of the crystal form C was taken and placed on the bottom of a glass sample bottle, and spread to a thin layer. The sample stored under high temperature, high humidity, and acceleration conditions was placed in a bottle of which the mouth was packed with a pierced aluminum foil to ensure the sample to be sufficiently exposed to ambient air; the sample stored under light radiation conditions was placed at room temperature in a standing bottle of which the mouth was open, the sample was exposed to a light resource, and sampled for detection after being radiated by sufficient energy. Samples were taken and analyzed at various time points, and the test results were compared with the initial test results of 0 day.
as §1, with “D” for “C”
A sample of the crystal form E (10 mg) was taken and placed on the bottom of a glass sample bottle, and spread to a thin layer. […]

[1] = Acceleration test (40° C./relative humidity of 75%, open), 1 month
[2] = Acceleration test (40° C./relative humidity of 75%, open), 2 months
[3] = Acceleration test (40° C./relative humidity of 75%, open), 3 months
[4] = Acceleration test (40° C./relative humidity of 75%, open), 10 days
[5] = Acceleration test (60° C./relative humidity of 75%, open), 1 month
[6] = Acceleration test (60° C./relative humidity of 75%, open), 2 months
[7] = Acceleration test (60° C./relative humidity of 75%, open), 3 months
[8] = Acceleration test (60° C./relative humidity of 75%, open), 10 days
[9] = High humidity (room temperature/relative humidity of 92.5%, open), 5 days
[10] = High humidity (room temperature/relative humidity of 92.5%, open), 10 days
[11] = High temperature (60° C., open), 5 days
[12] = High temperature (60° C., open), 10 days
[13] = Light radiation (total illumination: 1.2 × 10^6 Lux·hr/near ultraviolet: 200 w·hr/m^2, open), light radiation sample
[14] = Light radiation test, control sample in dark

Appearance (0 day (initial)): Off-white
Content (%) (0 day (initial)): 99.21%
Crystal Form (XRPD) (0 day (initial)): form B
Total Impurities (%) (0 day (initial)): 0.41%
Appearance [1]: Off-white
Content (%) [1]: 99.49%
Crystal Form (XRPD) [1]: form B
Total Impurities (%) [1]: 0.43%
Appearance [2]: Off-white
Crystal Form (XRPD) [2]: form B
Appearance [3]: Off-white
Content (%) [3]: 96.23%
Crystal Form (XRPD) [3]: form B
Total Impurities (%) [3]: 0.31%
Appearance [4]: Off-white
Content (%) [4]: 101.21%
Crystal Form (XRPD) [4]: form B
Total Impurities (%) [4]: 0.43%
Appearance [5]: Off-white
Content (%) [5]: 98.68%
Crystal Form (XRPD) [5]: form B
Total Impurities (%) [5]: 0.42%
Appearance [6]: Off-white
Crystal Form (XRPD) [6]: form B
Appearance [7]: Off-white
Content (%) [7]: 96.71%
Crystal Form (XRPD) [7]: form B
Total Impurities (%) [7]: 0.31%
Appearance [8]: Off-white
Content (%) [8]: 100.91%
Crystal Form (XRPD) [8]: form B
Total Impurities (%) [8]: 0.42%
Appearance [9]: Off-white
Crystal Form (XRPD) [9]: form B
Appearance [10]: Off-white
Content (%) [10]: 101.03%
Crystal Form (XRPD) [10]: form B
Total Impurities (%) [10]: 0.42%
Appearance [11]: Off-white
Crystal Form (XRPD) [11]: form B
Appearance [12]: Off-white
Content (%) [12]: 100.74%
Crystal Form (XRPD) [12]: form B
Total Impurities (%) [12]: 0.42%
Appearance [13]: Off-white
Content (%) [13]: 92.90%
Crystal Form (XRPD) [13]: form B
Total Impurities (%) [13]: 2.21%
Appearance [14]: Off-white
Content (%) [14]: 100.23%
Crystal Form (XRPD) [14]: form B
Total Impurities (%) [14]: 0.42%
photostability (stability under light radiation), conclusion in words: slight impurity generation
stability in dark, conclusion in words: good stability
stability under acceleration conditions, conclusion in words: superior
thermal stability (high temperature), conclusion in words: superior
Compound: C=CC(=O)N[C@H]1COC[C@H]1Nc1ncc(/C=C(\F)c2c(Cl)c(OC)cc(OC)c2Cl)cn1 [Crystal Form B]

Appearance (0 day (initial)): White
Content (%) (0 day (initial)): 101.51%
Crystal Form (XRPD) (0 day (initial)): form E
Total Impurities (%) (0 day (initial)): 0.44%
Appearance [1]: White
Content (%) [1]: 102.95%
Crystal Form (XRPD) [1]: form E
Total Impurities (%) [1]: 0.33%
Appearance [4]: White
Content (%) [4]: 99.58%
Crystal Form (XRPD) [4]: form E
Total Impurities (%) [4]: 0.35%
Appearance [5]: White
Content (%) [5]: 102.48%
Crystal Form (XRPD) [5]: form E
Total Impurities (%) [5]: 0.40%
Appearance [8]: White
Content (%) [8]: 100.38%
Crystal Form (XRPD) [8]: form E
Total Impurities (%) [8]: 0.37%
Appearance [9]: White
Crystal Form (XRPD) [9]: form E
Appearance [10]: White
Content (%) [10]: 101.24%
Crystal Form (XRPD) [10]: form E
Total Impurities (%) [10]: 0.34%
Appearance [11]: White
Crystal Form (XRPD) [11]: form E
Appearance [12]: White
Content (%) [12]: 100.37%
Crystal Form (XRPD) [12]: form E
Total Impurities (%) [12]: 0.50%
Appearance [13]: White
Content (%) [13]: 98.70%
Crystal Form (XRPD) [13]: form E
Total Impurities (%) [13]: 0.49%
Appearance [14]: White
Content (%) [14]: 100.87%
Crystal Form (XRPD) [14]: form E
Total Impurities (%) [14]: 0.37%
photostability (stability under light radiation), conclusion in words: slight impurity generation
stability in dark, conclusion in words: good stability
stability under acceleration conditions, conclusion in words: superior
thermal stability (high temperature), conclusion in words: superior
Compound: C=CC(=O)N[C@H]1COC[C@H]1Nc1ncc(/C=C(\F)c2c(Cl)c(OC)cc(OC)c2Cl)cn1.CS(=O)(=O)O [Crystal Form E]
